# Like-named read-outs stand apart in the source and are kept apart here.
# Legend:
# advanced NSCLC = assay: open-label predictive marker identification Phase II study of Tarceva monotherapy; assay type: in vivo, human; conditions: 264 enrolled patients, 150 mg/day oral
# Method: Based on the experience from the BR.21 study, benefiting population was defined as either having objective response, or disease stabilization for ≧12 weeks. Clinical and microarray datasets were analyzed according to a pre-defined statistical plan.
# The selection of this dose was based on pharmacokinetic parameters, as well as the safety and tolerability profile of this dose observed in Phase I, II and III trials in heavily pre-treated patients with advanced cancer. Drug levels seen in the plasma of patients with cancer receiving the 150 mg/day dose were consistently above the average plasma concentration of 500 ng/ml targeted for clinical efficacy.
# This was an open-label, predictive marker identification Phase II study. The study was conducted in approximately 26 sites in about 12 countries. 264 patients with advanced NSCLC following failure of at least one prior chemotherapy regimen were enrolled over a 12 month period. […] Dose reductions were permitted based on tolerability to drug therapy. Clinical and laboratory parameters were assessed to evaluate disease control and toxicity. Treatment continued until disease progression, unacceptable toxicity or death.
# The RECIST (Uni-dimensional Tumour Measurement) criteria were used to evaluate response. […]
# A regular status check every 3 months was performed either by a patient's visit to the clinic or by telephone. All deaths were recorded. […]
# NSCLC [1] = conditions: single agent, patients for whom standard therapy for advanced disease has failed, versus placebo; cited from earlier work
# [2] = patients with cancer, 150 mg/day dose; compared with average plasma concentration targeted for clinical efficacy; cited from earlier work
# NSCLC [3] = conditions: cited from earlier work
# NSCLC [4] = conditions: second line therapy of NSCLC; cited from earlier work
smiles,measurement,setting,value
C#Cc1cccc(Nc2ncnc3cc(OCCOC)c(OCCOC)cc23)c1 [Erlotinib],median overall survival,advanced NSCLC,7.6 (CI 7-9) months
same,median progression-free survival,advanced NSCLC,11.3 (CI 8-12) weeks
same,survival of NSCLC patients,NSCLC [1],significantly prolongs and improves the survival
same,drug levels in plasma,[2],> 500 ng/mL
CC(=O)O[C@@]12CO[C@@H]1C[C@H](O)[C@@]1(C)C(=O)[C@H](O)C3=C(C)[C@@H](OC(=O)[C@H](O)[C@@H](NC(=O)OC(C)(C)C)c4ccccc4)C[C@@](O)([C@@H](OC(=O)c4ccccc4)[C@H]21)C3(C)C [docetaxel],survival,"NSCLC [3]; second line after cisplatin-based first-line regimens failed, all ages, ECOG performance status 0, 1 or 2",improved survival
same,survival,NSCLC [3]; third-line treatment or beyond,no prolongation of survival
Nc1nc2[nH]cc(CCc3ccc(C(=O)N[C@@H](CCC(=O)O)C(=O)O)cc3)c2c(=O)[nH]1 [pemetrexed],efficacy compared with docetaxel,NSCLC [4],clinically equivalent efficacy
same,side effects compared with docetaxel,NSCLC [4],significantly fewer side effects

# From patent US20110218212A1, “PREDICTIVE MARKERS FOR EGFR INHIBITORS TREATMENT” (priority 2007, published 2011)
